Experimental data as given in patent US20140093592A1, “[…] THE TREATMENT OF TREATMENT-[…] TREATMENT-RESISTANT DEPRESSION” (Janssen Pharmaceutica NV, priority 2012, published 2014).

How the values were obtained:
[1] = tested on: patients with major depressive disorders; conditions: cited from earlier work
[2] = tested on: adult subjects with treatment-resistant depression (TRD); test: Brief Psychiatric Rating Scale (BPRS) total score, same clinical study; conditions: 0.40 mg/kg
[3] = tested on: adult subjects with treatment-resistant depression (TRD); test: Clinician-Assessed Dissociative Symptom Scale (CADSS) total score, same clinical study
[4] = 0.20 mg/kg, Day 1 (4 Hour), baseline Day 1
[5] = 0.20 mg/kg, Day 1 (40 Min), baseline Day 1
[6] = 0.20 mg/kg, Day 2, baseline Day 1
[7] = 0.20 mg/kg, Day 4 (4 Hour), baseline Day 4
[8] = 0.20 mg/kg, Day 4 (40 Min), baseline Day 4
[9] = 0.20 mg/kg, Day 5, baseline Day 4
[10] = 0.40 mg/kg, Day 1 (4 Hour), baseline Day 1
[11] = 0.40 mg/kg, Day 1 (40 Min), baseline Day 1
[12] = 0.40 mg/kg, Day 2, baseline Day 1
[13] = 0.40 mg/kg, Day 4 (4 Hour), baseline Day 4
[14] = 0.40 mg/kg, Day 4 (40 Min), baseline Day 4
[15] = 0.40 mg/kg, Day 5, baseline Day 4

CNC1(c2ccccc2Cl)CCCCC1=O (racemic) [ketamine]
Onset of rapid antidepressant effect [1]: within two hours

CN[C@]1(c2ccccc2Cl)CCCCC1=O.Cl [Esketamine, (S)-2-(2-chlorophenyl)-2-(methylamino)cyclohexanone hydrochloride]
BPRS total score, Mean (SE) ([2]; Day 1 (4 Hour)): 0.00 (0.000) | BPRS total score, Mean (SE) ([2]; Day 1 (15 Min.)): 1.91 (0.625) | BPRS total score, Mean (SE) ([2]; Day 1 (30 Min.)): 3.10 (0.960) | BPRS total score, Mean (SE) ([2]; Day 1 (40 Min.)): 4.33 (1.323) | BPRS total score, Mean (SE) ([2]; Day 1 (Predose)): 0.09 (0.091) | BPRS total score, Mean (SE) ([2]; Day 2): 0.00 (0.000) | BPRS total score, Mean (SE) ([2]; Day 4 (2 Hour)): 0.43 (0.335) | BPRS total score, Mean (SE) ([2]; Day 4 (4 Hour)): 0.29 (0.286) | BPRS total score, Mean (SE) ([2]; Day 4 (15 Min.)): 1.90 (0.668) | BPRS total score, Mean (SE) ([2]; Day 4 (30 Min.)): 3.32 (1.192) | BPRS total score, Mean (SE) ([2]; Day 4 (40 Min.)): 3.16 (1.248) | BPRS total score, Mean (SE) ([2]; Day 4 (Predose)): 0.05 (0.048) | BPRS total score, Mean (SE) ([2]; Day 5): 0.00 (0.000) | CADSS total score, Mean (SD) ([3]; 0.20 mg/kg, Day 1 (4 Hour)): 0.00 (0.000) | CADSS total score, Median ([3]; 0.20 mg/kg, Day 1 (4 Hour)): 0.00 | CADSS total score change from baseline, Mean (SD) [3, 4]: 0.00 (0.000) | CADSS total score change from baseline, Median [3, 4]: 0.00 | CADSS total score, Mean (SD) ([3]; 0.20 mg/kg, Day 1 (40 Min)): 15.56 (24.653) | CADSS total score, Median ([3]; 0.20 mg/kg, Day 1 (40 Min)): 4.00 | CADSS total score change from baseline, Mean (SD) [3, 5]: 15.56 (24.653) | CADSS total score change from baseline, Median [3, 5]: 4.00 | CADSS total score, Mean (SD) ([3]; 0.20 mg/kg, Day 1 (Predose)): 0.00 (0.000) | CADSS total score, Median ([3]; 0.20 mg/kg, Day 1 (Predose)): 0.00 | CADSS total score, Mean (SD) ([3]; 0.20 mg/kg, Day 2): 0.22 (0.667) | CADSS total score, Median ([3]; 0.20 mg/kg, Day 2): 0.00 | CADSS total score change from baseline, Mean (SD) [3, 6]: 0.22 (0.667) | CADSS total score change from baseline, Median [3, 6]: 0.00 | CADSS total score, Mean (SD) ([3]; 0.20 mg/kg, Day 4 (4 Hour)): 0.22 (0.667) | CADSS total score, Median ([3]; 0.20 mg/kg, Day 4 (4 Hour)): 0.00 | CADSS total score change from baseline, Mean (SD) [3, 7]: 0.22 (0.667) | CADSS total score change from baseline, Median [3, 7]: 0.00 | CADSS total score, Mean (SD) ([3]; 0.20 mg/kg, Day 4 (40 Min)): 6.38 (7.963) | CADSS total score, Median ([3]; 0.20 mg/kg, Day 4 (40 Min)): 4.00 | CADSS total score change from baseline, Mean (SD) [3, 8]: 6.38 (7.963) | CADSS total score change from baseline, Median [3, 8]: 4.00 | CADSS total score, Mean (SD) ([3]; 0.20 mg/kg, Day 4 (Predose)): 0.00 (0.000) | CADSS total score, Median ([3]; 0.20 mg/kg, Day 4 (Predose)): 0.00 | CADSS total score, Mean (SD) ([3]; 0.20 mg/kg, Day 5): 0.11 (0.333) | CADSS total score, Median ([3]; 0.20 mg/kg, Day 5): 0.00 | CADSS total score change from baseline, Mean (SD) [3, 9]: 0.11 (0.333) | CADSS total score change from baseline, Median [3, 9]: 0.00 | CADSS total score, Mean (SD) ([3]; 0.40 mg/kg, Day 1 (4 Hour)): 0.36 (1.206) | CADSS total score, Median ([3]; 0.40 mg/kg, Day 1 (4 Hour)): 0.00 | CADSS total score change from baseline, Mean (SD) [3, 10]: −0.55 (1.036) | CADSS total score change from baseline, Median [3, 10]: 0.00 | CADSS total score, Mean (SD) ([3]; 0.40 mg/kg, Day 1 (40 Min)): 22.00 (9.192) | CADSS total score, Median ([3]; 0.40 mg/kg, Day 1 (40 Min)): 23.00 | CADSS total score change from baseline, Mean (SD) [3, 11]: 21.56 (9.645) | CADSS total score change from baseline, Median [3, 11]: 23.00 | CADSS total score, Mean (SD) ([3]; 0.40 mg/kg, Day 1 (Predose)): 0.91 (1.921) | CADSS total score, Median ([3]; 0.40 mg/kg, Day 1 (Predose)): 0.00 | CADSS total score, Mean (SD) ([3]; 0.40 mg/kg, Day 2): 0.73 (1.849) | CADSS total score, Median ([3]; 0.40 mg/kg, Day 2): 0.00 | CADSS total score change from baseline, Mean (SD) [3, 12]: −0.18 (1.168) | CADSS total score change from baseline, Median [3, 12]: 0.00 | CADSS total score, Mean (SD) ([3]; 0.40 mg/kg, Day 4 (4 Hour)): 3.21 (8.929) | CADSS total score, Median ([3]; 0.40 mg/kg, Day 4 (4 Hour)): 0.00 | CADSS total score change from baseline, Mean (SD) [3, 13]: 3.16 (8.808) | CADSS total score change from baseline, Median [3, 13]: 0.00 | CADSS total score, Mean (SD) ([3]; 0.40 mg/kg, Day 4 (40 Min)): 15.67 (13.932) | CADSS total score, Median ([3]; 0.40 mg/kg, Day 4 (40 Min)): 10.00 | CADSS total score change from baseline, Mean (SD) [3, 14]: 15.67 (13.932) | CADSS total score change from baseline, Median [3, 14]: 10.00 | CADSS total score, Mean (SD) ([3]; 0.40 mg/kg, Day 4 (Predose)): 0.19 (0.680) | CADSS total score, Median ([3]; 0.40 mg/kg, Day 4 (Predose)): 0.00 | CADSS total score, Mean (SD) ([3]; 0.40 mg/kg, Day 5): 0.25 (0.550) | CADSS total score, Median ([3]; 0.40 mg/kg, Day 5): 0.00 | CADSS total score change from baseline, Mean (SD) [3, 15]: 0.05 (0.759) | CADSS total score change from baseline, Median [3, 15]: 0.00 | Time at which maximum mean overall BPRS and CADSS scores (CNS side effects) were observed ([3]; corresponding to the end of the infusion): 40 min | Time point at which BPRS and CADSS scores returned back to baseline values ([3]; postdose, after the start of infusion): 4 h
